Data set [1] can be described thus: Food intake and weight in control and 2-AAA treated mice. The format is in vivo. The settings on record: 2-AAA 500 mg/kg/day via drinking water, up to 5 weeks. An excerpt:
FIGS. 3A and 3B are graphs depicting serial weights and food intake in control and 2-AAA treated animals.
(§1) Intervention studies in mice were completed to examine whether 2-AAA might play a contributory or compensatory role in glucose homeostasis by performing 2-AAA. For this study, four independent cohorts of 24 C57B/L6 male mice entered the study protocol at 6 weeks of age. Two cohorts received the standard chow diet and two cohorts received a high-fat diet. Half of the mice assigned to each diet received 2-AAA (500 mg/kg/day equivalent to a starting dose of 12.03±0.30 mM) via the drinking water for up to five weeks. Pre-weighed food and water were administered to each cage. Food and water intake was monitored weekly. Mice supplemented with 2-AAA had 33% higher plasma levels of this metabolite by one week of treatment (p=0.018).
Fasting plasma glucose levels were measured weekly in mice fed either a standard chow (left) or high-fat diet (right) beginning at 6 weeks of age, with simultaneous 2-AAA treatment via drinking water (500/mg/kg/day) or water alone for the subsequent 5 weeks. (n=24 mice per condition) (*p<0.05; **p<0.01; ***p<0.001). For mice on the SCD, fasting glucose levels were 109.5±3.8 mg/dL for the 2-aminoadipic treated animals as compared to 124.5±4.9 mg/dL, for the untreated controls after 5 weeks (p<0.01, FIG. 2A). […]

Data set [2] is described as follows: Plasma 2-AAA level in mice supplemented with 2-AAA. In kind it is in vivo. The note with it: 500 mg/kg/day via drinking water; by one week of treatment; p=0.018. On the procedure: as §1
For the perigonadal adipose tissue, metabolites were first extracted by mixing harvested tissues with 6 μL per 1 mg of adipose tissue of a MeOH:Chloroform solution (2:1 v/v). The extracted adipose tissues were then homogenized for 4 minutes at 25 Hz in a TissueLyser II. […] A calibration curve using 2-AAA d3 (C/D/N Isotopes Inc, Quebec Canada) was generated for absolute quantitation of 2-AAA in plasma and tissue samples. […] An isotopically labeled standard was used to facilitate absolute quantitation of the metabolite of interest in the setting of the different biological matrices.

Another data set relates to Beta TC6 (BTC6) cells. Nature of the data set: Insulin secretion by BTC6 pancreatic beta cell line. In kind it is cell-based, mouse. The note with it: for insulin secretion: 100 μM, 2.5 mM glucose. On the procedure: FIG. 8A is a graph depicting percent insulin secretion by BTC6 cells following incubation with 2-AAA at concentrations ranging from 0 to 100 μM for 0.5 to 72 hours.
FIG. 8B is a graph depicting the effects of 2-AAA (30 μM), clonidine (100 μM) and phentolamine (100 μM) on insulin secretion by BTC6 cells.
To investigate the connection between 2-AAA and the pancreas, insulin production by a pancreatic beta cell line that was acutely and chronically exposed to 2-AAA. Beta TC6 (BTC6) cells, an established model to examine insulin secretion (mouse insulinoma beta-TC-6 (ATCC® CRL-11506™) from ATCC (Manassas, Va.)) (27-29), were used at passage number 4-7, grown in DMEM (ATCC 2002-30), 15% FBS, with penicillin/streptomycin (100 IU/ml/100 μg/ml). Cells were plated on 24 well collagen plates at 40,000 cells per well, incubated with 2-AAA at varying concentrations ranging from 0 to 100 μM for 0 to 72 hours to assess whether this compound increases insulin secretion in a time and/or dose dependent fashion. On the day of experimentation, the cells were washed with PBS and the media was changed to DMEM without FBS or glucose to which 0.1% BSA was added. After 1 hour of incubation, this media was changed to serum free media containing 2.5 mM of glucose. Insulin production was measured in the supernatant after 1 additional hour of incubation. To assess the time response relationship, 2-AAA was added to the cells after plating on collagen and incubated for 0.5, 2, 6, and 72 hours.

Data set [3] concerns C57B/L6 male mice. Nature of the data set: Insulin tolerance test (ITT, acute insulin challenge) after 2-AAA treatment. The note with it: ITT 0.00075 U insulin/g; SCD and HFD. The format is in vivo. On the procedure: FIGS. 6A and 6B are graphs depicting plasma glucose levels 2-AAA mice fed either a standard chow (left) or high-fat diet (right) measured following acute insulin challenge (n=15 per condition).
(§2) Fasting insulin levels in mice were measured by an ELISA kit (Crystal Chem Inc., Downers Grove Ill.). After 5 weeks of 2-AAA treatment, and following a 6-hour fast, each group of mice was administered an intra-peritoneal glucose tolerance test (IPGTT; 1.5 mg/g of body weight; 75 mg/mL of glucose solution) or an insulin tolerance test (ITT; 0.00075 U of insulin/g of body weight, 0.15 U/ml insulin solution, Sigma-Aldrich, St. Louis, Mo.). For the IPGTT, venous blood samples were obtained from the tail vein immediately prior to glucose injection and then serially at 30, 60, and 120 minutes following the injection. For the ITT, venous blood samples were obtained from the tail vein immediately prior to the insulin injection and then serially at 15, 30, 45 and 60 minutes following the injection.
Additional studies were performed using acute physiologic challenges, including acute glucose and insulin administration. As expected, mice fed a HFD had more pronounced glucose excursions following the glucose challenge (FIG. 4). In mice fed both the SCD and HFD for 5 weeks or greater, peak glucose concentrations following the glucose challenge were lower in the 2-AAA treated mice. […]

Data set [4] has as its system Islets from male C57BL/6J mice. Nature of the data set: Insulin secretion from isolated mouse islets. The format is cell-based. The note with it: 30 μM 2-AAA for 6 hours; 2.5 mmol/l glucose; normalized to islet content. On the procedure: FIG. 9 is a graph depicting insulin secretion from islets isolated from male C57BL/6J mice following incubation with 30 μM 2-AAA for 6 hours. Insulin was assayed using the Meso Scale Discovery multi array assay system for mouse/rat total insulin (Gaithersburg, Md., USA). Secretion was normalized to islet content. (n=3, p=0.016)
Islets from male C57BL/6J mice were isolated by collagenase digestion of the pancreas, purified by Ficoll density gradient and then handpicked. Mouse islets were cultured for 24 hours as previously described (26). For insulin secretion experiments, 15 islets were placed in each microcentrifuge tube and incubated in islet secretion buffer containing (in mmol/1) 120 NaCl, 5 KCl, 1 CaCl2, 1.2 MgCl2, 24 NaHCO3, 10 HEPES, and 2.5 glucose, bubbled with 95% O2/5% CO2 and supplemented with 0.5% (wt/vol) BSA. Experiments were performed by incubating islets in 1 ml of secretion buffer in the presence or absence of 30 μM 2-AAA for 6 hours at 37° C., 5% CO2. Insulin was assayed using the Meso Scale Discovery multi array assay system for mouse/rat total insulin (Gaithersburg, Md., USA). Secretion was normalized to islet content.

The subject of data set [5] is C57B/L6 male mice. Nature of the data set: Fasting plasma glucose in mice given 2-AAA chronically via drinking water. The format is in vivo. The note with it: for fasting glucose levels: 2-AAA 500 mg/kg/day via drinking water, mean ± SEM. On the procedure:
FIGS. 2A and B are graphs depicting fasting plasma glucose levels in 2-AAA in mice fed either a standard chow (2A) or high-fat diet (2B). Fasting plasma glucose levels were measured weekly in mice fed either a standard chow (left) or high-fat diet (right) beginning at 6 weeks of age, with simultaneous 2-AAA treatment via drinking water (500/mg/kg/day) or water alone for the subsequent 5 weeks. (n=24 mice per condition) (*p<0.05; **p<0.01; ***p<0.001).
The effect of a Western-style diet on circulating 2-AAA levels in mice was examined. C57BL/6 male mice (Jackson Laboratories, Bar Harbor, Me.) were housed in separate cages with free access to food and water. Mice were fed a standard chow diet containing 22.5% protein, 52% carbohydrates, 6% fat, 6% ash and 4% fiber (Prolab Isopro RMH 3000, Brentwood, Mo.) or a high-fat diet containing 20 kcal % protein, 20 kcal % carbohydrate and 60 kcal % fat (DIO formula, D12492, Research Diets, Inc, New Brunswick, N.J.) as indicated. The total energy equivalent was 3.46 kcal/gm for the standard chow diet and 5.24 kcal/gm for the high fat diet.
as §1
Fasting plasma glucose levels were measured weekly in mice fed either a standard chow (left) or high-fat diet (right) beginning at 6 weeks of age, with simultaneous 2-AAA treatment via drinking water (500/mg/kg/day) or water alone for the subsequent 5 weeks. […]

Data set [6] concerns C57B/L6 male mice. Nature of the data set: Fasting plasma insulin levels (ELISA) after 2-AAA treatment. The format is in vivo. The note with it: after 5 weeks of 2-AAA; increase seen in HFD animals. On the procedure: FIG. 5 is a graph depicting fasting plasma insulin levels in 2-AAA mice fed either a standard chow (left) or high-fat diet (right) measured following completion of the 2-AAA treatment (5 weeks) in the mice on both diets (n=12 mice per condition) (*p<0.05).
as §2
(§3) Additional studies were performed using acute physiologic challenges, including acute glucose and insulin administration. As expected, mice fed a HFD had more pronounced glucose excursions following the glucose challenge (FIG. 4). […]

Data set [7] deals with C57B/L6 male mice. Nature of the data set: Intra-peritoneal glucose tolerance test (IPGTT) after chronic 2-AAA treatment. In kind it is in vivo. The settings on record: IPGTT 1.5 mg/g; mice fed SCD and HFD for 5 weeks or greater. On the procedure: FIG. 4 is a graph depicting plasma glucose levels in 2-AAA mice fed either a standard chow (left) or high-fat diet (right) following IPGTT challenge after completion of the 2-AAA chronic treatment in mice fed either the standard chow or high-fat diet. (n=12 mice per condition) (*p<0.05; **p<0.01).
as §2, §3

Consider `N[C@H](CCCC(=O)O)C(=O)O` (stereo in doubt) [2-AAA, 2-aminoadipic acid], for which the “differences in food intake or weight between treated and control mice” value in data set [1] is listed as “no significant differences”. Besides, the “increase in plasma levels of 2-AAA versus unsupplemented mice” value in data set [2] is 33%. In the data set with Beta TC6 (BTC6) cells (2-AAA 0 to 100 μM for 0.5 to 72 hours), the “insulin secretion from BTC6 cells” value is “induced insulin secretion from BTC6 cells in a dose and time dependent fashion”. Besides, the “incubation time at which augmented insulin secretion was evident” value in the data set on Beta TC6 (BTC6) cells (BTC6 cells) is listed as “at least 6 hours”. In addition, the “peak insulin secretion relative to that of phentolamine (172±8% of control)” value in the data set with Beta TC6 (BTC6) cells (BTC6 cells, 2-AAA 30 μM vs phentolamine 100 μM) is “comparable”. Further, in the data set on C57B/L6 male mice [3], the “effect on rate of decline in glucose levels following acute insulin challenge” value was “no effect”. The “insulin release from islets” value in data set [4] was “release insulin”. The “fasting glucose levels in treated mice versus water alone” value with C57B/L6 male mice [5] (both diets, p<0.001 by 2-way ANOVA after 5 weeks) was “consistently lower”. Also, the fasting glucose levels in the data set on C57B/L6 male mice [5] (mice on high-fat diet (HFD), at 5 weeks) was 134.5 ± 5.9 mg/dL; with C57B/L6 male mice [5] (mice on standard chow diet (SCD), after 5 weeks), 109.5 ± 3.8 mg/dL. In the data set with C57B/L6 male mice [6], the “fasting insulin levels versus untreated animals” value is reported as “further augmented”. For the same compound, the “peak glucose concentrations following the glucose challenge versus control” value with C57B/L6 male mice [7] is “lower”.
For `Clc1cccc(Cl)c1N=C1NCCN1` [clonidine, reference compound], in the data set on Beta TC6 (BTC6) cells (BTC6 cells), the insulin secretion is 60±3 % of control.
On to `Cc1ccc(N(CC2=NCCN2)c2cccc(O)c2)cc1` [phentolamine, reference compound], for which the insulin secretion in the data set on Beta TC6 (BTC6) cells (BTC6 cells) is listed as 172±8 % of control.

The values above are taken from US20160030373A1, “2-AAA as a Biomarker and Therapeutic Agent for Diabetes” (THE GENERAL HOSPITAL CORPORATION, priority 2013, published 2016).
